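Exposure lasted 48 hours, with cells grown in 96-well plates and compounds tested at five concentrations. The concentration for 50% growth inhibition is given as GI50.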 Calls of active or inactive are those of the source. Cut-off read from the data, not from the text of the source: active = GI50 up to about 1.1 µM and inactive = higher. Where a SMILES comes first, the peptide text is derived from it. [ ]: non-standard residue; d: D form. Ac5c = NC1(C(=O)O)CCCC1
Experiments:
Assay in all cases: NCI anticancer screen, dose series, 48 h
RPMI-8226 = test system: RPMI-8226
NCI-H522 = test system: NCI-H522
SF-295 = test system: SF-295
CCRF-CEM = test system: CCRF-CEM
HCC 2998 = test system: HCC 2998
M14 = test system: M14
SK-OV-3 = test system: SK-OV-3
MDA-N = test system: MDA-N
MCF7 = test system: MCF7
SK-MEL-2 = test system: SK-MEL-2
SF-268 = test system: SF-268
SK-MEL-5 = test system: SK-MEL-5
KM12 = test system: KM12
IGROV-1 = test system: IGROV-1
COLO 205 = test system: COLO 205
SR = test system: SR
SK-MEL-28 = test system: SK-MEL-28
A498 = test system: A498

Measured: GI50

OC(c1cc2ccccc2o1)c1cc2ccccc2s1 (stereo not given)
inactive: RPMI-8226 > 10 µM | NCI-H522 > 10 µM | SF-295 > 10 µM | CCRF-CEM > 10 µM | HCC 2998 > 10 µM | M14 > 10 µM | SK-OV-3 > 10 µM | MDA-N 3.94 µM | MCF7 9.44 µM | SK-MEL-2 > 10 µM | SF-268 > 10 µM | SK-MEL-5 > 10 µM | KM12 7.23 µM | IGROV-1 > 10 µM | COLO 205 > 10 µM | SR > 10 µM | SK-MEL-28 > 10 µM

Nc1nc2c(ncn2Cc2ccccc2CCO)c(=O)[nH]1
inactive: RPMI-8226 > 100 µM | NCI-H522 > 100 µM | SF-295 > 100 µM | CCRF-CEM > 100 µM | HCC 2998 > 100 µM | M14 > 100 µM | SK-OV-3 > 100 µM | SK-MEL-2 > 100 µM | SF-268 > 100 µM | A498 > 100 µM | SK-MEL-5 > 100 µM | KM12 > 100 µM | IGROV-1 > 100 µM | COLO 205 > 100 µM | SK-MEL-28 > 100 µM

COC(=O)/C(=N/NC(C)(C)C)C(C(=O)C=C(C)C)C(=O)C(=O)Nc1ccc(Cl)cc1C (stereo not given)
inactive: RPMI-8226 > 100 µM | NCI-H522 > 100 µM | SF-295 > 100 µM | CCRF-CEM > 100 µM | HCC 2998 > 100 µM | M14 > 100 µM | SK-OV-3 > 100 µM | SK-MEL-2 > 100 µM | SF-268 > 100 µM | A498 > 100 µM | SK-MEL-5 > 100 µM | KM12 > 100 µM | IGROV-1 > 100 µM | COLO 205 > 100 µM | SR > 100 µM | SK-MEL-28 > 100 µM

Cc1nnc2sc(-c3ccc(N)cc3)nn12
inactive: RPMI-8226 > 100 µM | NCI-H522 > 100 µM | SF-295 > 100 µM | CCRF-CEM > 100 µM | HCC 2998 > 100 µM | M14 > 100 µM | SK-OV-3 > 100 µM | MCF7 > 100 µM | SK-MEL-2 > 100 µM | SF-268 > 100 µM | SK-MEL-5 > 100 µM | KM12 > 100 µM | IGROV-1 > 100 µM | COLO 205 > 100 µM | SR > 100 µM | SK-MEL-28 > 100 µM

COC(=O)C1(NC(=O)C(C)NC(=O)C(CCCCN)NC(=O)C(CC(C)C)NC(C)=O)CCCC1 (stereo not given) (Ac-LKA[Ac5c]-OMe; configuration not given here)
inactive: RPMI-8226 > 100 µM | NCI-H522 > 100 µM | SF-295 > 100 µM | CCRF-CEM > 100 µM | HCC 2998 > 100 µM | M14 > 100 µM | SK-OV-3 > 100 µM | MDA-N > 100 µM | MCF7 > 100 µM | SF-268 > 100 µM | SK-MEL-5 > 100 µM | KM12 > 100 µM | IGROV-1 > 100 µM | COLO 205 > 100 µM | SR > 100 µM | SK-MEL-28 > 100 µM
